Reference: the supplement of paper PMC11061612

Columns and labels:
[1] = test system: EN (Endometrial Carcinoma); test: combination Emax (second highest fraction inhibited in the dose matrix, 72 h); higher = more inhibition; extreme values may be limits of the assay
Outline: (§1)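 Cell lines grown in DMEM/F12 or RPMI with 10% FBS were plated in 1536-well plates and held 24 hours at 37°C, 5% CO2 before 72 hours of exposure to two-drug dose matrices, with DMSO typically at 0.2%. CellTiter-Glo 2.0 luminescence gave viability, which was converted to inhibition. Vehicle wells were set to 0 and blank wells to 1. Combination Emax is the second-highest inhibition in the matrix, and Bliss excess is the observed combination effect minus the expected EA + EB − EA·EB, where EA and EB are the single-agent effects.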

NCI-H28 (Mesothelioma) = test: as above
Outline: as §1

HMV-II (Melanoma) [2] = test: as above
Outline: as §1

[3] = test system: Hs-633T (Other Solid Carcinomas); test: Bliss excess, mean over the matrix (fraction); higher = more synergy
Outline: as §1

[4] = test system: OC-314 (Ovarian Carcinoma); test: as above
Outline: as §1

[5] = test system: 8305C (Thyroid Gland Carcinoma); test: as above
Outline: as §1

[6] = test system: RPMI-6666 (Non-Cancerous); test: as above
Outline: as §1

[7] = test system: SU-DHL-6 (B-Cell Non-Hodgkin's Lymphoma); test: as above
Outline: as §1

HMV-II (Melanoma) [8] = test: as above
Outline: as §1

[9] = test system: RT-112 (Bladder Carcinoma); test: as above
Outline: as §1

[10] = test system: CAPAN-1 (Pancreatic Carcinoma); test: as above
Outline: as §1

SH-4 (Melanoma) = test: as above
Outline: as §1

[11] = test system: RKO (Colorectal Carcinoma); test: as above
Outline: as §1

[12] = test system: LB771-HNC (Head and Neck Carcinoma); test: combination Emax (second highest fraction inhibited in the dose matrix, 72 h); higher = more inhibition; extreme values may be limits of the assay
Outline: as §1

[13] = test system: HCC-15 (Squamous Cell Lung Carcinoma); test: Bliss excess, mean over the matrix (fraction); higher = more synergy
Outline: as §1

[14] = test system: LB771-HNC (Head and Neck Carcinoma); test: as above
Outline: as §1

[15] = test system: CAL-51 (Breast Carcinoma); test: as above
Outline: as §1

[16] = test system: UMC-11 (Other Solid Carcinomas); test: as above
Outline: as §1

[17] = test system: 639-V (Bladder Carcinoma); test: as above
Outline: as §1
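For Bliss excess, mean over the matrix in this document: after 72 h of two-drug dosing.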

Structure (SMILES)	combination Emax [1]	combination Emax (NCI-H28 (Mesothelioma))	combination Emax (HMV-II (Melanoma) [2])	Bliss excess [3]	Bliss excess [4]	Bliss excess [5]	Bliss excess [6]	Bliss excess [7]	Bliss excess (HMV-II (Melanoma) [8])	Bliss excess [9]	Bliss excess [10]	Bliss excess (SH-4 (Melanoma))	Bliss excess [11]	combination Emax [12]	Bliss excess [13]	Bliss excess [14]	Bliss excess [15]	Bliss excess [16]	Bliss excess [17]
C=CCn1c(=O)c2cnc(Nc3ccc(N4CCN(C)CC4)cc3)nc2n1-c1cccc(C(C)(C)O)n1 [AZD1775] + CCc1c2c(nc3ccc(O)cc13)-c1cc3c(c(=O)n1C2)COC(=O)[C@]3(O)CC [SN-38] (first compound max 1 µM, partner max 0.3 µM)	0.699	0.551	0.634	-0.0522	0.0032	-0.0536	-0.048	0.0224	-0.122	0.109	-0.0635	-0.072	-0.0377						
NC1(C(=O)N[C@@H](CCO)c2ccc(Cl)cc2)CCN(c2ncnc3[nH]ccc23)CC1 [Capivasertib] + CC(=O)c1c(C)c2cnc(Nc3ccc(N4CCNCC4)cn3)nc2n(C2CCCC2)c1=O [Palbociclib] (first compound max 10 µM, 7x7, partner max 10 µM)	0.546	0.425	0.524	0.0179	0.0028	-0.0461	-0.0423	0.0059	-0.0138	-0.0324	-0.0163	-0.045	0.0625	0.403	-0.0442	-0.0781	0.0262	0.039	-0.0612
COc1nnc2ccc(N3CCC(c4ccc(OCCN5CCN(C)C(=O)[C@H]5C)cc4)CC3)nn12 [AZD5153] + Cc1c2c(nn1C)CSCc1cc(n(C)n1)CSc1cc(c3ccccc3c1)OCCCc1c(C(=O)O)n(C)c3c-2c(Cl)ccc13 [AZD5991] (first compound max 1 µM, 7x7, partner max 1 µM)	0.645	0.465	0.76	0.0227	-0.0625	-0.0922	-0.0409	-0.0326	-0.0092	0.0039	-0.0534	-0.0628	-0.0293	0.915	-0.0105	0.0475	0.0291	0.0518	-0.0552
C=CCn1c(=O)c2cnc(Nc3ccc(N4CCN(C)CC4)cc3)nc2n1-c1cccc(C(C)(C)O)n1 [AZD1775] + C1CN(CCC1(C(=O)N[C@@H](CCO)C2=CC=C(C=C2)Cl)N)C3=NC=NC4=C3C=CN4 [Capivasertib] (first compound max 3 µM, partner max 3 µM)	0.715	0.56	0.592	0.0389	-0.0158	0.0069	-0.0148	0.0012	-0.0774	-0.0348		-0.0713	0.0179	0.696	-0.0331	-0.0581	-0.0188	0.0101	-0.0541
COc1nnc2ccc(N3CCC(c4ccc(OCCN5CCN(C)C(=O)[C@H]5C)cc4)CC3)nn12 [AZD5153] + Cn1cnc2c(F)c(Nc3ccc(Br)cc3Cl)c(C(=O)NOCCO)cc21 [Selumetinib] (first compound max 1 µM, 7x7, partner max 10 µM)	0.289	0.502	0.927	0.0302	-0.064	-0.0323	-0.0462	-0.0278	0.0275	0.0423	-0.0226	0.0222	0.0263	0.475	0.0567	-0.0895	0.0099	-0.031	-0.0459
NC1(C(=O)N[C@@H](CCO)c2ccc(Cl)cc2)CCN(c2ncnc3[nH]ccc23)CC1 [Capivasertib] + COc1nnc2ccc(N3CCC(c4ccc(OCCN5CCN(C)C(=O)[C@H]5C)cc4)CC3)nn12 [AZD5153] (first compound max 10 µM, 7x7, partner max 1 µM)	0.525	0.453	0.588	0.0419	-0.0135	0.014	-0.0305	-0.0424	0.014	0.0334	-0.0045	-0.0171	0.0048	0.875	0.009	0.0208	0.0957	0.0063	0.0409
CC(=O)c1c(C)c2cnc(Nc3ccc(N4CCNCC4)cn3)nc2n(C2CCCC2)c1=O [Palbociclib] + Cn1cnc2c(F)c(Nc3ccc(Br)cc3Cl)c(C(=O)NOCCO)cc21 [Selumetinib] (first compound max 10 µM, 7x7, partner max 10 µM)	0.184	0.379	0.809	0.0767	0.0141	0.0123	-0.0324	0.167	-0.0203	-0.0333	-0.0741	0.0333	0.082	0.194	-0.0069	-0.0893	0.0035	0.079	-0.0833
Cn1cnc2c(F)c(Nc3ccc(Br)cc3Cl)c(C(=O)NOCCO)cc21 [Selumetinib] + C[C@@H]1COCCN1C2=NC(=NC(=C2)C3(CC3)[S@](=N)(=O)C)C4=C5C=CNC5=NC=C4 [AZD6738] (first compound max 10 µM, 7x7, partner max 10 µM)	0.558	0.471	0.735	-0.0012	-0.0764	-0.0238	-0.0157	0.0102	-0.0384	-0.0088	0.0147	-0.0145	-0.0041	0.503	0.0787	-0.0532	0.0209	0.0001	0.0585
Cn1cnc2c(F)c(Nc3ccc(Br)cc3Cl)c(C(=O)NOCCO)cc21 [Selumetinib] + C=CCn1c(=O)c2cnc(Nc3ccc(N4CCN(C)CC4)cc3)nc2n1-c1cccc(C(C)(C)O)n1 [AZD1775] (first compound max 10 µM, partner max 1 µM)	0.587	0.433	0.812	-0.0094	-0.027	-0.0383	0.023	-0.0229	-0.0494	-0.0352	-0.0399	-0.0546	-0.0202	0.452	0.0018	-0.0937	-0.0175	0.0137	-0.0207
NC1(C(=O)N[C@@H](CCO)c2ccc(Cl)cc2)CCN(c2ncnc3[nH]ccc23)CC1 [Capivasertib] + CCN(CCO)CCCOc1ccc2c(Nc3cc(CC(=O)Nc4cccc(F)c4)[nH]n3)ncnc2c1 [AZD2811] (first compound max 10 µM, 7x7, partner max 1 µM)	0.661	0.416	0.445	0.0136	-0.015	0.0022	-0.133	0.0406	-0.0457	-0.0152	-0.0486	-0.0507	-0.0055	0.489	-0.0366	-0.0549	0.0519	-0.0195	0.0193
COc1nnc2ccc(N3CCC(c4ccc(OCCN5CCN(C)C(=O)[C@H]5C)cc4)CC3)nn12 [AZD5153] + C[C@@H]1COCCN1C2=NC(=NC(=C2)C3(CC3)[S@](=N)(=O)C)C4=C5C=CNC5=NC=C4 [AZD6738] (first compound max 1 µM, 7x7, partner max 10 µM)	0.584	0.659	0.712	0.0037	0.0111	-0.0088	-0.17	-0.0505	0.0169	0.0298	-0.022	-0.0438	-0.0442	0.739	0.069	0.0467	0.0189	0.0169	0.0933
CS(=O)(=O)CCNCc1ccc(-c2ccc3ncnc(Nc4ccc(OCc5cccc(F)c5)c(Cl)c4)c3c2)o1 [Lapatinib] + Cn1cnc2c(F)c(Nc3ccc(Br)cc3Cl)c(C(=O)NOCCO)cc21 [Selumetinib] (first compound max 10 µM, 7x7, partner max 10 µM)	0.345	0.412	0.768	0.026	0.0644	-0.0297	0.0204	0.0412	-0.141	0.0134	-0.0664	-0.0519	0.0413						
COc1nnc2ccc(N3CCC(c4ccc(OCCN5CCN(C)C(=O)[C@H]5C)cc4)CC3)nn12 [AZD5153] + CCN(CCO)CCCOc1ccc2c(Nc3cc(CC(=O)Nc4cccc(F)c4)[nH]n3)ncnc2c1 [AZD2811] (first compound max 1 µM, 7x7, partner max 1 µM)	0.454	0.518	0.588	-0.0285	-0.04	-0.0629	-0.0656	-0.0215	-0.0481	-0.0595	-0.08	-0.0194	-0.0096	0.519	-0.0646	-0.0006	-0.0038	-0.123	-0.063
CS(=O)(=O)CCNCc1ccc(-c2ccc3ncnc(Nc4ccc(OCc5cccc(F)c5)c(Cl)c4)c3c2)o1 [Lapatinib] + NC1(c2ccc(-c3nc4ccn5c(=O)[nH]nc5c4cc3-c3ccccc3)cc2)CCC1 [MK-2206] (first compound max 10 µM, 7x7, partner max 10 µM)	0.512	0.607	0.904	0.0256	0.043	0.118	0.0164	0.0378	-0.0337	0.0746	-0.016	0.0025	-0.0002						
Cc1nc(-c2cn3c(n2)-c2ccc(-c4cnn(C(C)(C)C(N)=O)c4)cc2OCC3)n(C(C)C)n1 [Taselisib] + O=C(Nc1ccc2[nH]nc(-c3ccncc3)c2c1)[C@@H]1CCN(CC(=O)N2CCN(c3ccc(-c4ncccn4)cc3)CC2)C1 [SCH772984] (first compound max 10 µM, 7x7, partner max 5 µM)	0.619	0.589	0.867	0.0891	0.0521	0.0199	-0.001	0.0251	0.0285	0.108	0.0449	0.0374	0.146						
